Earlier results as cited in patent publication US20040038984A1, “Composition for male & female sexual arousal” (priority 2002, published 2004).

Conditions: following oral administration

time of peak plasma concentrations: 1 to 2 h
Compound: Cn1cc([S+](C)[O-])c(=O)c2ccc(F)cc21 (stereo not shown) [flosequinan]
